According to patent US7041470B2, “Method of assaying the susceptibility of biofilms to anti-microbial agents” (University Technologies International, Inc., priority 1996, dated 2006):

Tested on: Escherichia coli biofilm
Experiment: Escherichia coli biofilm on projections, antibiotic treatment, manual cfu count
Type: cell-based
Protocol: Up to 8 different antibiotics or biocides can be tested by using 1 row (A-H) for each antimicrobial reagent. […] Rinse the remaining projections in PBS using a troughed vessel 20 and place the colonized projections into the 96 well antibiotic plate and incubate overnight at 37° C. […] (3) From the freshly sonicated plate remove 0.02 ml of the medium from each well and spot plate neat; and 0.025 ml from each well to prepare a serial dilution (10^−1 to 10^−6) and spot plate 0.02 ml (dilutions can be done in microtiter plates, one for each antibiotic). Place the plate containing the remaining medium and bacteria to incubate at 37° C., overnight. Day 4: Assay the sessile survival, by for example reading the plate incubated overnight at 490 nm or by counting the colonies on the plates to determine the actual number of surviving bacteria, or by using some other method known in the art. Several different conventional methods may be used to count the bacteria. It may be done by incubating the sonicated bacteria, taking serial dilutions and visually counting the colony forming units, or automated methods may be used, as for example using an optical reader to determine optical density. […] In the case of using vital dye technology, the biofilm need not be further incubated. In a further embodiment, the assay may be carried out by sonicating the cells until they lyse and release ATP and then adding luciferase to produce a mechanically readable light output. In a still further embodiment, the assay may be carried out directly on the biofilm on the projections using a confocal microscope, although it should be considered that this is difficult to automate. […] Examples are given to show a comparison between counts of planktonic bacteria and counts of sessile bacteria for the same growth conditions. […] The initial biofilm was colonized for four hours. The antibiotic was applied to the wells 2-12 of the rows A-H of a 96 well plate as follows: well 2: no antibiotic, well 3: 1000 μg/mL, well 4: 500 μg/mL . . . well 12: 2 μg/mL. 250 μL final volume of diluted antibiotic was applied to the wells.

Measured: manually counted cfu, Escherichia coli biofilm

CC(C)(O/N=C(\C(=O)N[C@@H]1C(=O)N2C(C(=O)[O-])=C(C[n+]3ccccc3)CS[C@H]12)c1csc(N)n1)C(=O)O [F, ceftazidine]
0 cfu: well 3: 1000 μg/mL antibiotic, biofilm colonized four hours | well 4: 500 μg/mL antibiotic, biofilm colonized four hours | well 5 of doubling dilutions, well 3: 1000 μg/mL to well 12: 2 μg/mL | well 6 of doubling dilutions, well 3: 1000 μg/mL to well 12: 2 μg/mL ([…] implied) | well 7 of doubling dilutions, well 3: 1000 μg/mL to well 12: 2 μg/mL | well 8 of doubling dilutions, well 3: 1000 μg/mL to well 12: 2 μg/mL | well 9 of doubling dilutions, well 3: 1000 μg/mL to well 12: 2 μg/mL
